Test results as given in patent US20080090916A1, “Compounds for Treating Urinary Incontinence” (priority 2005, published 2008).

Key:
Female land race pigs = assay: In vivo pig urodynamic model (urodynamic and cardiovascular parameters)
Experimental: The animal model employed in this study was a slight modification of the previously described pig in vivo urodynamic model by Mills (1999). Surgical procedures were performed by Home Office personal licence holders. Female land race pigs of about 60 kg in weight were used for this study.
Pigs were initially sedated with ketamine hydrochloride 15 mg/kg (ketaset, Willows Francis Veterinary, Crawley, UK) and midazolam 0.2 mg/kg (Hypnovel, Roche Products Ltd, Welwyn Garden City, UK) through an intravenous central line. […] The induction phase of general anaesthesia was accomplished with 5% halothane (Fluothane, Astra ZenecaLtd, Macclesfield UK) in nitrous oxide 50%/oxygen 50%, delivered from an anaesthetic machine through a conical mask which was held over the snout of the pig. Following the induction phase, the maintenance phase of general anaesthesia was achieved using intravenous 1% propofol at the rate of 200 mg/hr.
At the start of surgery, the pig was initially placed in the left lateral position allowing access to the lumbar dorsal region. A stab incision for each catheter was made in the lumbar dorsal midline, as well as a single small right iliac fossa incision. Using a specially designed trocar, the peritoneal catheter and the proximal portions of the vesical catheters were tunneled from the dorsal lumbar incision to the right iliac fossa, such that the cuff at the proximal end finished in a small subcutaneous pocket. Each incision was approximated with two interrupted 2/0 nylon sutures, taking care to avoid occlusion of the catheters. The pig was then turned into a supine position and a lower abdominal incision made. Using a Spencer-Well forceps, the peritoneum and abdominal wall muscles were pierced from inside out and three catheters grabbed and pulled into the peritoneal cavity. The longer peritoneal catheter was placed in the vesico-vaginal pouch. Two purse-string sutures of 2/0 silk were placed in the apex of the bladder, and stab incisions made through the centre of each of these. The distal shorter halves of the vesical lines were introduced into the bladder through these incisions and the purse-strings tied, ensuring that the lumen of each catheter remained patent. Each side of the small pieces of silastic sheet on these catheters was sutured to the serosa of the bladder, in order to provide further security against subsequent line displacement. These distal portions of the two vesical catheters were then connected to the proximal portions using the nylon connectors. The abdominal wound was closed en masse with 1 nylon, followed by 2/0 chromic catgut to fat and interrupted 2/0 nylon to the skin. The right iliac fossa wound was closed in layers with vicryl to internal oblique and external oblique and interrupted 2/0 nylon to the skin. One of the vesical lines was attached to another piece of tubing externally and left on free drainage for 48 hours to allow the bladder to heal.
Following induction of anaesthesia, the animal was placed in a supine position and covered with a warm water blanket to maintain body temperature. A small incision was then made in the left groin area through which the left femoral artery was identified by palpation. The artery was then cannulated with an arterial […] cannulae (Abbocath-T, Abbott Ireland, and Sligo, Ireland) which was then connected to a pressure transducer for the measurement of arterial pressure. Vesico-urethral junction cystometry was obtained using a catheter mounted with a microtranducer (Gaeltec LTD, Isle of Skye). To cannulate the urethra, the vagina was opened with a speculum to expose the external urethral orifice which is high up in the anterior wall of the vagina. Having identified the external orifice the catheter was then inserted into the urethra by direct vision, thereafter it was gradually withdrawn until it was positioned in the vesico-urethral junction. […]

[1] = In vitro percutaneous absorption (skin permeation) of saturated solutions, modified Franz cell; format: in vitro ADME, human; settings: dissolved in IPM/Pharmasolve 80:20 (v/v), compared with control solution
Experimental: For all experiments (one run with 9 cells) skin from one patient was used. The skin was excised full skin from surgery of the thigh, cleaned from adhering fat tissue, stored at −18° C. prior to use but not for longer than 6 months.
In vitro skin permeation investigation was performed as described in this Example.
The flux was calculated for every formulation by means of linear regression (performance with Excel software; regression coefficient to be >0.98) from the mean cumulative permeated amounts in μg/cm^2 during steady state against the time in hours. For test solution #1 the linear regression was calculated from 12-48 hours (not until 72 hours, because after 48 hours the permeation was decreasing). […] The lag-time (which was the time when steady state of permeation was starting after application) was taken from the intersection of the regression line with the time axis.
The transdermal delivery rate was assumed to be the same in vivo as it is in vitro (this must, of course, be proven by further kinetic studies). The patch size was set to 20 cm^2, which is middle sized (small patches are 5 cm^2; big patches are 60 cm^2) and the delivery rate was calculated daily (1 day=24 hours).
(flux rate steady state [μg/cm^2/h]×20 [cm^2]×24[h])/1000=delivery rate [mg/20 cm^2/24 h].

[2] = Solubility concentration of saturated solutions determined by HPLC; format: physicochemical
Experimental: The tightness of the cells and absence of air bubbles in the receptor phase was monitored and given at each sampling point.
So, from manufacturing of the solutions, the amount of the compound of formula (Ia) per solvent volume was known (documentation by balance print out). That amount was named a saturated solution. Afterwards the saturated solution was centrifuged and the solubility concentration of the clear supernatant of the solution was determined quantitatively by HPLC. The saturation factor was calculated from the ratio of saturated solution:solubility concentration. A high ratio represented a high level of infinite dose.

[3] = 1 mg/kg iv bolus, mean of three voiding cycles

COc1ccc(OC)c([C@@H](O)[C@H](C)NC(=O)CC[C@H](N)C(=O)O)c1 [compound of formula (Ia), (S)-2-Amino-4-[(1S,2R)-2-(2,5-dimethoxyphenyl)-2-hydroxy-1-methyl-ethylcarbamoyl]butyric acid]
VUJ threshold pressure, greater than control runs (Female land race pigs; 1 mg/kg iv): about 31%
duration of voiding, change from control (Female land race pigs; 1 mg/kg iv): 4.1%
fall in deutrusor voiding pressure from the control runs (Female land race pigs; 1 mg/kg iv): 36.5%
flow rate, change from control (Female land race pigs; 1 mg/kg iv): 2.4%
voiding intervals, change from control (Female land race pigs; 1 mg/kg iv): −4.7%
deutrusor voiding pressure (Female land race pigs; [3]): 28±10.11 cmH2O
intravesical threshold voiding pressure (Female land race pigs; [3]): 16.23±1.16 cmH2O
voiding pressure during the voiding phase (Female land race pigs; [3]): 41.1±8.3 cmH2O
bladder intravesical baseline pressure (Female land race pigs; 1 mg/kg iv bolus, mean of three voiding cycles, one animal): 8.53±0.34 cmH2O
reduction in residual volume (Female land race pigs; 1 mg/kg iv, versus control): 31%
rise in the threshold VUJ voiding pressure (Female land race pigs; 1 mg/kg iv, versus control): 15%
VUJ baseline pressure (Female land race pigs; 1 mg/kg iv, versus control runs): transient rise
arterial pressure, change from the control (Female land race pigs; 1 mg/kg iv, arterial line flushed after dosing): 15%
voiding efficiency (Female land race pigs; 1 mg/kg iv, voided volume as percentage of bladder capacity): 95%
enhancement factor for percutaneous absorption [1]: 13.84
saturation concentration in the acceptor medium ([2]; 0.9% NaCl 80%, PEG 400 20%, 0.1% NaN3): 130 mg/mL
solubility in Ethanol ([2]; Ethanol): high solubility
water solubility ([2]; water): high
solubility in both media ([2]; water and DMSO): high solubility
